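Step 1: Grow cells in 96-well plates. Step 2: Expose to compound for 48 hours at 5 concentrations. Step 3: Interpolate endpoints linearly; if unreached, use highest concentration. TGI is the concentration that stops growth completely.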
Tests used:
Assay in all cases: NCI tumour cell line growth inhibition, 48 h
MOLT-4 leukemia = tested on: MOLT-4 leukemia
LOX IMVI melanoma = tested on: LOX IMVI melanoma
KM12 colon = tested on: KM12 colon
HOP-92 NSCLC = tested on: HOP-92 NSCLC
HCT-15 colon = tested on: HCT-15 colon
SF-539 CNS = tested on: SF-539 CNS
K-562 leukemia = tested on: K-562 leukemia
EKVX NSCLC = tested on: EKVX NSCLC
NCI-H23 lung = tested on: NCI-H23 lung
OVCAR-8 ovarian = tested on: OVCAR-8 ovarian
SNB-19 CNS = tested on: SNB-19 CNS
UO-31 renal = tested on: UO-31 renal
NCI-H522 lung = tested on: NCI-H522 lung
SF-295 CNS = tested on: SF-295 CNS
SN12C renal = tested on: SN12C renal
U251 CNS = tested on: U251 CNS
NCI/ADR-RES ovarian = tested on: NCI/ADR-RES ovarian
A549 NSCLC = tested on: A549 NSCLC
CCRF-CEM leukemia = tested on: CCRF-CEM leukemia
MDA-MB-435 = tested on: MDA-MB-435
T-47D breast = tested on: T-47D breast
786-0 renal = tested on: 786-0 renal
SK-MEL-28 melanoma = tested on: SK-MEL-28 melanoma
RXF 393 renal = tested on: RXF 393 renal
MDA-MB-231 breast = tested on: MDA-MB-231 breast
A498 renal = tested on: A498 renal
M14 melanoma = tested on: M14 melanoma
DU-145 prostate = tested on: DU-145 prostate
COLO 205 colon = tested on: COLO 205 colon
NCI-H226 lung = tested on: NCI-H226 lung
HT29 colon = tested on: HT29 colon
HCC-2998 colon = tested on: HCC-2998 colon
ACHN renal = tested on: ACHN renal
SW-620 colon = tested on: SW-620 colon
PC-3 prostate = tested on: PC-3 prostate
MDA-N = tested on: MDA-N
OVCAR-5 ovarian = tested on: OVCAR-5 ovarian
HOP-62 NSCLC = tested on: HOP-62 NSCLC
HCT-116 colon = tested on: HCT-116 colon
IGROV1 ovarian = tested on: IGROV1 ovarian
UACC-257 melanoma = tested on: UACC-257 melanoma
UACC-62 melanoma = tested on: UACC-62 melanoma
MALME-3M melanoma = tested on: MALME-3M melanoma
MCF7 breast = tested on: MCF7 breast
SR leukemia = tested on: SR leukemia
OVCAR-3 ovarian = tested on: OVCAR-3 ovarian
NCI-H460 lung = tested on: NCI-H460 lung
RPMI-8226 leukemia = tested on: RPMI-8226 leukemia
SK-MEL-5 melanoma = tested on: SK-MEL-5 melanoma
SK-MEL-2 melanoma = tested on: SK-MEL-2 melanoma
TK-10 renal = tested on: TK-10 renal
HS 578T breast = tested on: HS 578T breast
HL-60(TB) leukemia = tested on: HL-60(TB) leukemia
CAKI-1 renal = tested on: CAKI-1 renal
SF-268 CNS = tested on: SF-268 CNS
OVCAR-4 ovarian = tested on: OVCAR-4 ovarian
SNB-75 CNS = tested on: SNB-75 CNS
SK-OV-3 ovarian = tested on: SK-OV-3 ovarian

For `CC1CC(C)CC(NC2=NCCO2)C1` (centres undefined), the TGI (MOLT-4 leukemia) was > 100 µM, the TGI (LOX IMVI melanoma) was > 100 µM and the TGI (KM12 colon) was > 100 µM. The TGI (HOP-92 NSCLC) was > 100 µM, the TGI (HCT-15 colon) was > 100 µM and the TGI (SF-539 CNS) was > 100 µM. The TGI (K-562 leukemia) was > 100 µM, the TGI (EKVX NSCLC) was > 100 µM and the TGI (NCI-H23 lung) was > 100 µM. For the same compound, the TGI (OVCAR-8 ovarian) was > 100 µM, the TGI (SNB-19 CNS) was > 100 µM and the TGI (UO-31 renal) was > 100 µM. The TGI (NCI-H522 lung) was > 100 µM, the TGI (SF-295 CNS) was > 100 µM and the TGI (SN12C renal) was > 100 µM. The TGI (U251 CNS) was > 100 µM, the TGI (NCI/ADR-RES ovarian) was > 100 µM and the TGI (A549 NSCLC) was > 100 µM. The TGI (CCRF-CEM leukemia) was > 100 µM, the TGI (MDA-MB-435) was > 100 µM and the TGI (T-47D breast) was > 100 µM. The TGI (786-0 renal) was > 100 µM, the TGI (SK-MEL-28 melanoma) was > 100 µM and the TGI (RXF 393 renal) was > 100 µM. For the same compound, the TGI (MDA-MB-231 breast) was > 100 µM, the TGI (A498 renal) was > 100 µM and the TGI (M14 melanoma) was > 100 µM. For the same compound, the TGI (DU-145 prostate) was > 100 µM, the TGI (COLO 205 colon) was > 100 µM and the TGI (NCI-H226 lung) was > 100 µM. The TGI (HT29 colon) was > 100 µM, the TGI (HCC-2998 colon) was > 100 µM and the TGI (ACHN renal) was > 100 µM. For the same compound, the TGI (SW-620 colon) was > 100 µM, the TGI (PC-3 prostate) was > 100 µM and the TGI (MDA-N) was > 100 µM. The TGI (OVCAR-5 ovarian) was > 100 µM, the TGI (HOP-62 NSCLC) was > 100 µM and the TGI (HCT-116 colon) was > 100 µM. For the same compound, the TGI (IGROV1 ovarian) was > 100 µM, the TGI (UACC-257 melanoma) was > 100 µM and the TGI (UACC-62 melanoma) was > 100 µM. The TGI (MALME-3M melanoma) was > 100 µM, the TGI (MCF7 breast) was > 100 µM and the TGI (SR leukemia) was > 100 µM. For the same compound, the TGI (OVCAR-3 ovarian) was > 100 µM, the TGI (NCI-H460 lung) was > 100 µM and the TGI (RPMI-8226 leukemia) was > 100 µM. For the same compound, the TGI (SK-MEL-5 melanoma) was > 100 µM, the TGI (SK-MEL-2 melanoma) was > 100 µM and the TGI (TK-10 renal) was > 100 µM. For the same compound, the TGI (HS 578T breast) was > 100 µM, the TGI (HL-60(TB) leukemia) was > 100 µM and the TGI (CAKI-1 renal) was > 100 µM. For the same compound, the TGI (SF-268 CNS) was > 100 µM and the TGI (OVCAR-4 ovarian) was > 100 µM.
`CCN(CC)CCOc1ccc(N2C(=O)c3cccc4cc([N+](=O)[O-])cc(c34)C2=O)cc1` showed a TGI (MOLT-4 leukemia) of 11.3 µM, a TGI (LOX IMVI melanoma) of 20.4 µM and a TGI (KM12 colon) of 64.5 µM. It also gave a TGI (HOP-92 NSCLC) of 44.1 µM, a TGI (HCT-15 colon) of 26.1 µM and a TGI (SF-539 CNS) of 25.1 µM. It also gave a TGI (EKVX NSCLC) of 35.4 µM, a TGI (NCI-H23 lung) of 26.5 µM and a TGI (OVCAR-8 ovarian) of 34.5 µM. The TGI (SNB-19 CNS) was 30.3 µM, the TGI (UO-31 renal) was 21.7 µM and the TGI (NCI-H522 lung) was 19.7 µM. For the same compound, the TGI (SF-295 CNS) was 21.1 µM, the TGI (SN12C renal) was 40.9 µM and the TGI (U251 CNS) was 22.6 µM. For the same compound, the TGI (NCI/ADR-RES ovarian) was 60 µM, the TGI (A549 NSCLC) was 19.8 µM and the TGI (CCRF-CEM leukemia) was 30.8 µM. It also gave a TGI (MDA-MB-435) of 26.6 µM, a TGI (T-47D breast) of 39.3 µM and a TGI (786-0 renal) of 18.3 µM. It also gave a TGI (SK-MEL-28 melanoma) of 25.3 µM, a TGI (MDA-MB-231 breast) of 37.6 µM and a TGI (A498 renal) of 25.4 µM. The TGI (M14 melanoma) was 25.3 µM, the TGI (DU-145 prostate) was 24.3 µM and the TGI (COLO 205 colon) was 64.2 µM. The TGI (NCI-H226 lung) was 19 µM, the TGI (HT29 colon) was 18.3 µM and the TGI (HCC-2998 colon) was 25 µM. The TGI (ACHN renal) was 15.9 µM, the TGI (SW-620 colon) was 25.8 µM and the TGI (PC-3 prostate) was 35.2 µM. For the same compound, the TGI (MDA-N) was 30.3 µM, the TGI (OVCAR-5 ovarian) was 20.9 µM and the TGI (HOP-62 NSCLC) was 15.4 µM. It also gave a TGI (HCT-116 colon) of 20.5 µM, a TGI (IGROV1 ovarian) of 22.3 µM and a TGI (UACC-257 melanoma) of 27 µM. For the same compound, the TGI (MALME-3M melanoma) was 26.9 µM, the TGI (SNB-75 CNS) was 35.1 µM and the TGI (MCF7 breast) was 23.5 µM. It also gave a TGI (SR leukemia) of 32.8 µM, a TGI (NCI-H460 lung) of 15.5 µM and a TGI (SK-MEL-5 melanoma) of 26.6 µM. It also gave a TGI (SK-MEL-2 melanoma) of 33.7 µM, a TGI (TK-10 renal) of 26 µM and a TGI (HS 578T breast) of 42.5 µM. For the same compound, the TGI (HL-60(TB) leukemia) was 28.2 µM, the TGI (CAKI-1 renal) was 26 µM and the TGI (SF-268 CNS) was 27.1 µM. The TGI (OVCAR-4 ovarian) was 31 µM.
`COc1cc(C(=O)NC(CCN)(c2ccccc2)c2ccccc2)cc(OC)c1OC` was tested, and the TGI (MOLT-4 leukemia) was 21.5 µM, the TGI (LOX IMVI melanoma) was > 31.6 µM and the TGI (KM12 colon) was > 31.6 µM. For the same compound, the TGI (HOP-92 NSCLC) was 25.5 µM, the TGI (HCT-15 colon) was > 31.6 µM and the TGI (SF-539 CNS) was > 100 µM. For the same compound, the TGI (K-562 leukemia) was 23.1 µM, the TGI (EKVX NSCLC) was > 31.6 µM and the TGI (NCI-H23 lung) was > 31.6 µM. For the same compound, the TGI (OVCAR-8 ovarian) was > 31.6 µM, the TGI (SNB-19 CNS) was > 100 µM and the TGI (UO-31 renal) was > 64.4 µM. The TGI (NCI-H522 lung) was > 100 µM, the TGI (SF-295 CNS) was > 31.6 µM and the TGI (SN12C renal) was > 31.6 µM. The TGI (U251 CNS) was > 100 µM, the TGI (NCI/ADR-RES ovarian) was > 100 µM and the TGI (A549 NSCLC) was > 31.6 µM. For the same compound, the TGI (MDA-MB-435) was > 31.6 µM, the TGI (T-47D breast) was > 31.6 µM and the TGI (786-0 renal) was > 31.6 µM. For the same compound, the TGI (SK-MEL-28 melanoma) was 21.4 µM, the TGI (RXF 393 renal) was 27.6 µM and the TGI (MDA-MB-231 breast) was > 31.5 µM. The TGI (A498 renal) was 17.5 µM, the TGI (SK-OV-3 ovarian) was > 31.6 µM and the TGI (M14 melanoma) was 19.1 µM. For the same compound, the TGI (DU-145 prostate) was > 31.6 µM, the TGI (COLO 205 colon) was 19 µM and the TGI (NCI-H226 lung) was 98.9 µM. For the same compound, the TGI (HT29 colon) was 28.3 µM, the TGI (HCC-2998 colon) was 19.8 µM and the TGI (ACHN renal) was > 31.6 µM. The TGI (SW-620 colon) was > 31.6 µM, the TGI (PC-3 prostate) was > 100 µM and the TGI (MDA-N) was > 100 µM. For the same compound, the TGI (OVCAR-5 ovarian) was > 100 µM, the TGI (HOP-62 NSCLC) was > 31.6 µM and the TGI (HCT-116 colon) was > 95.3 µM. For the same compound, the TGI (IGROV1 ovarian) was > 31.6 µM, the TGI (UACC-257 melanoma) was 22.3 µM and the TGI (UACC-62 melanoma) was > 31.6 µM. For the same compound, the TGI (MALME-3M melanoma) was 18.4 µM, the TGI (SNB-75 CNS) was 30.4 µM and the TGI (MCF7 breast) was > 31.6 µM. For the same compound, the TGI (SR leukemia) was 24 µM, the TGI (OVCAR-3 ovarian) was > 100 µM and the TGI (NCI-H460 lung) was > 31.6 µM. The TGI (SK-MEL-5 melanoma) was 18 µM, the TGI (SK-MEL-2 melanoma) was > 100 µM and the TGI (TK-10 renal) was > 31.6 µM. For the same compound, the TGI (HS 578T breast) was > 92.6 µM, the TGI (HL-60(TB) leukemia) was 18.5 µM and the TGI (CAKI-1 renal) was 87.6 µM. The TGI (SF-268 CNS) was > 31.6 µM and the TGI (OVCAR-4 ovarian) was > 31.6 µM.
